According to the supplement of paper PMC8633005:

Key:
Test in all cases: drug sensitivity score (DSS) (DSS (unitless, 0-50 scale)); higher = more sensitive (stronger viability inhibition); extreme values may be limits of the assay
Conditions in all cases: 72 h; culture: 2D
WM852 = system: WM852
Procedure, shortened: (§1)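 Drug sensitivity scores, modified area-under-curve measures, were derived from dose-response curves fitted in the in-house Breeze software. The curves came from melanoma cell lines and patient-derived melanoma cultures (1000–1500 cells per well) grown in 2D in 384-well plates holding a 527-compound oncology library. Each compound was dissolved in DMSO or water and tested at five concentrations across a 10,000-fold range. Viability was read by CellTiter-Glo luminescence after 72 h at 37 °C.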

SK-MEL-28 = system: SK-MEL-28
Procedure, shortened: as §1

WM165 = system: WM165
Procedure, shortened: as §1

FM-MEL-6 = system: FM-MEL-6
Procedure, shortened: as §1

FM-MEL-3 = system: FM-MEL-3
Procedure, shortened: as §1

SK-MEL-2 = system: SK-MEL-2
Procedure, shortened: as §1

Bowes = system: Bowes
Procedure, shortened: as §1

FM-MEL-2 = system: FM-MEL-2
Procedure, shortened: as §1

Row | Structure (SMILES) | drug sensitivity score (WM852) | drug sensitivity score (SK-MEL-28) | drug sensitivity score (WM165) | drug sensitivity score (FM-MEL-6) | drug sensitivity score (FM-MEL-3) | drug sensitivity score (SK-MEL-2) | drug sensitivity score (Bowes) | drug sensitivity score (FM-MEL-2)
1 | CC[C@@H]1C(=O)N(C)c2cnc(Nc3ccc(C(=O)NC4CCN(C)CC4)cc3OC)nc2N1C1CCCC1 [BI 2536] | 18 | 3.5 | 19.6 | 6.7 | 4.3 | 10.5 | 19.7 | 1.7
2 | COc1c(C)cnc(Cn2cnc3c(Cl)nc(N)nc32)c1C [BIIB021] | 8.7 | 8.9 | 17.5 | 7.8 | 15.5 | 10.9 | 13.2 | 11.6
3 | CC1(C)C(C(=O)Nc2ccc(S(=O)(=O)c3ccc(NC(=O)C4C(C)(C)C4(C)C)cc3)cc2)C1(C)C [BRD7116] | 0 | 0 | 0 | 0 | 0.6 | 0 | 0.1 | 2.1
4 | O=C(Nc1cccc(Nc2ncc(Br)c(NCCc3cnc[nH]3)n2)c1)N1CCCC1 [BX-912] | 1.9 | 1.9 | 8.2 | 0.5 | 0.9 | 0 | 5.6 | 5.9
5 | Cc1ccc(NC(=O)c2ccc(CN3CC[C@H](N(C)C)C3)c(C(F)(F)F)c2)cc1Nc1nccc(-c2cncnc2)n1 [Bafetinib] | 0 | 1.3 | 2.9 | 0 | 1.7 | 0 | 0 | 2.3
6 | CCS(=O)(=O)N1CC(CC#N)(n2cc(-c3ncnc4[nH]ccc34)cn2)C1 [Baricitinib] | 0 | 0 | 0 | 0 | 0 | 0 | 0 | 0
7 | O=C(/C=C/c1cccc(S(=O)(=O)Nc2ccccc2)c1)NO [Belinostat] | 5.7 | 10.6 | 17.7 | 13.9 | 12.5 | 13.6 | 7.9 | 9.4
8 | N#CC(c1ccnc(OCc2ccc(CN3CCOCC3)cc2)n1)c1nc2ccccc2s1 (stereo unspecified) [Bentamapimod] | 0.1 | 0.8 | 1.1 | 2.8 | 5.9 | 0 | 1.4 | 3.9
9 | C=C(c1ccc(C(=O)O)cc1)c1cc2c(cc1C)C(C)(C)CCC2(C)C [Bexarotene] | 0 | 2.3 | 0 | 0.4 | 2.9 | 0 | 0 | 1.3
10 | CC(O)(CS(=O)(=O)c1ccc(F)cc1)C(=O)Nc1ccc(C#N)c(C(F)(F)F)c1 (stereo unspecified) [Bicalutamide] | 0.8 | 0.1 | 0 | 0 | 1.7 | 0 | 0 | 0
11 | CCNC(=O)CCC/C=C\C[C@@H]1[C@@H](/C=C/[C@@H](O)CCc2ccccc2)[C@H](O)C[C@@H]1O [Bimatoprost] | 0 | 0 | 0 | 0 | 0 | 0 | 0 | 0
12 | Cc1sc2c(c1C)C(c1ccc(Cl)cc1)=N[C@@H](CC(=O)Nc1ccc(O)cc1)c1nnc(C)n1-2 [Birabresib] | 0 | 2.9 | 12.1 | 6.7 | 7.6 | 0 | 4.5 | 6.2
13 | CC[C@H](NC(=O)[C@H](C)NC)C(=O)N1C[C@@H](O)C[C@H]1Cc1c(-c2[nH]c3cc(F)ccc3c2C[C@@H]2C[C@H](O)CN2C(=O)[C@H](CC)NC(=O)[C@H](C)NC)[nH]c2cc(F)ccc12 [Birinapant] | 0 | 0 | 0 | 3 | 1.4 | 3.9 | 0 | 8
14 | Cc1c(N)nc([C@H](CC(N)=O)NC[C@H](N)C(N)=O)nc1C(=O)N[C@H](C(=O)N[C@H](C)[C@@H](O)[C@H](C)C(=O)N[C@H](C(=O)NCCc1nc(-c2nc(C(=O)NCCC[S+](C)C)cs2)cs1)[C@@H](C)O)[C@@H](OC1OC(CO)C(O)C(O)C1OC1OC(CO)C(O)C(OC(N)=O)C1O)c1cnc[nH]1 (stereo partly specified) [Bleomycin] | 0 | 1.8 | 9.4 | 2.1 | 5 | 0 | 0.9 | 2.4
15 | CC(C)C[C@H](NC(=O)[C@H](Cc1ccccc1)NC(=O)c1cnccn1)B(O)O [Bortezomib] | 11.8 | 27.3 | 27 | 29 | 28.4 | 26.5 | 24.9 | 14.1
16 | COc1cc(Nc2c(C#N)cnc3cc(OCCCN4CCN(C)CC4)c(OC)cc23)c(Cl)cc1Cl [Bosutinib] | 7.6 | 8.7 | 8.4 | 4.9 | 3.2 | 4.7 | 8.2 | 5

Row | Structure (SMILES) | drug sensitivity score (WM852) | drug sensitivity score (SK-MEL-28) | drug sensitivity score (WM165) | drug sensitivity score (FM-MEL-6) | drug sensitivity score (FM-MEL-3) | drug sensitivity score (SK-MEL-2) | drug sensitivity score (Bowes) | drug sensitivity score (FM-MEL-2)
17 | COc1cc(N2CCC(N3CCN(C)CC3)CC2)ccc1Nc1ncc(Cl)c(Nc2ccccc2P(C)(C)=O)n1 [Brigatinib] | 3.1 | 0.5 | 1.5 | 1.6 | 3.3 | 0.2 | 1.1 | 0.9
18 | Cc1cc2c(F)c(Oc3ncnn4cc(OC[C@@H](C)O)c(C)c34)ccc2[nH]1 [Brivanib] | 0 | 0 | 0 | 0 | 0 | 0 | 0 | 0
19 | CCC/C=C/C=C/C(=O)O[C@H]1/C(=C/C(=O)OC)C[C@H]2C[C@H]([C@@H](C)O)OC(=O)C[C@H](O)C[C@@H]3C[C@H](OC(C)=O)C(C)(C)[C@](O)(C[C@@H]4C/C(=C/C(=O)OC)C[C@H](/C=C/C(C)(C)[C@]1(O)O2)O4)O3 [Bryostatin 1] | 4.3 | 1.9 | 2 | 5.8 | 0.1 | 0 | 1.7 | 0
20 | Nc1cc(C(F)(F)F)c(-c2cc(N3CCOCC3)nc(N3CCOCC3)n2)cn1 [Buparlisib] | 6 | 6.5 | 6.6 | 6 | 6.7 | 3.3 | 5.1 | 6.5
21 | Cc1nc2cccc(N)c2c(=O)n1C1CCC(=O)NC1=O (stereo unspecified) [CC122] | 0 | 0 | 0 | 1.3 | 0.2 | 0 | 0 | 0
22 | CCN1C(=O)CNc2ncc(-c3ccc(-c4nc[nH]n4)nc3C)nc21 [CC-115] | 5 | 6.5 | 10.4 | 9.5 | 8.5 | 9.8 | 8.2 | 10.7
23 | CO[C@H]1CC[C@H](N2C(=O)CNc3ncc(-c4ccc(C(C)(C)O)nc4)nc32)CC1 [CC-223] | 4.2 | 5.2 | 7.1 | 5.9 | 5.1 | 3.1 | 4.1 | 7.4
24 | COc1cc(C)[nH]c(=O)c1CNC(=O)c1c(C)n([C@H](C)C2CCOCC2)c2ccccc12 [CPI-360] | 0 | 0 | 0 | 0.6 | 0 | 0 | 0 | 0.2
25 | Cc1noc2c1-c1ccccc1C(c1ccc(Cl)cc1)=N[C@H]2CC(N)=O [CPI-0610] | 0 | 2.8 | 6.6 | 0 | 4.8 | 1 | 3.8 | 5.2
26 | O=C(O)CCCCC(CCSCc1ccccc1)SCc1ccccc1 (stereo unspecified) [CPI-613] | 0 | 0 | 0 | 0 | 0 | 0 | 0 | 0
27 | CN(C)c1cc2c(cc1Sc1nc3c(N)nccc3n1CCNCC(C)(C)C)OCO2 [CUDC-305] | 7.2 | 8.6 | 16.1 | 5.3 | 13 | 10.7 | 13.8 | 9.7
28 | COc1ccc(-c2nc(N3CCOCC3)c3sc(CN(C)c4ncc(C(=O)NO)cn4)cc3n2)cn1 [CUDC-907] | 20.8 | 28 | 38.5 | 32.8 | 36.9 | 33.1 | 22.5 | 33.1
29 | CO[C@H]1C(=O)[C@]2(C)[C@@H](OC)C[C@H]3OC[C@@]3(OC(C)=O)[C@H]2[C@H](OC(=O)c2ccccc2)[C@]2(O)C[C@H](OC(=O)[C@H](O)[C@@H](NC(=O)OC(C)(C)C)c3ccccc3)C(C)=C1C2(C)C [Cabazitaxel] | 20.3 | 9.1 | 23.2 | 12.1 | 8.2 | 14.8 | 24.3 | 1.6
30 | COc1cc2nccc(Oc3ccc(NC(=O)C4(C(=O)Nc5ccc(F)cc5)CC4)cc3)c2cc1OC [Cabozantinib] | 0.8 | 0 | 0 | 0.2 | 2.5 | 0 | 2.1 | 2.2
31 | C=CC(=O)Nc1cc2c(Nc3ccc(F)c(Cl)c3)ncnc2cc1OCCCN1CCOCC1 [Canertinib] | 6.5 | 3.5 | 7.5 | 6.3 | 9.1 | 4.9 | 8.7 | 8.4
32 | CCCCCOC(=O)Nc1nc(=O)n([C@@H]2O[C@H](C)[C@@H](O)[C@H]2O)cc1F [Capecitabine] | 0 | 0 | 0 | 0 | 0 | 0 | 0 | 0
